Laboratory results from patent publication US8178506B2, “Oligomeric compounds and compositions for use in modulation of small non-coding RNAs” (Regulus Therapeutics Inc., priority 2003, dated 2012).
In the oligonucleotide strings, read from the 5' end, every base follows the letter of its sugar. An asterisk marks phosphorothioate; unmarked linkages are phosphodiester. Other units and linkages are bracketed, terminal groups are in braces. A string of capitals states the bases alone. e = 2'-O-(2-methoxyethyl) (MOE); [5mC] = 5-methylcytosine; d = 2'-deoxy (DNA)

Legend:
[1] = tested on: mir-143 miRNA binding site; assay: GFP mir-143 sensor reporter in T-REx-HeLa cells; assay type: cell-based, human; conditions: for Mean fluorescence: T-REx-HeLa cells, 24 hours post-transfection
Excerpt: Reporter systems have been developed herein to assess the ability of miRNA mimics to provoke a gene silencing response and to assess whether antisense oligomeric compounds targeting miRNAs can inhibit gene silencing activity. The T-REx™-HeLa cell line (Invitrogen Corp., Carlsbad, Calif.) was used for either stable or transient transfections with plasmids constitutively expressing miRNAs, pre-miRNAs, pri-miRNAs or mimics thereof, and, in some cases, antisense oligomeric compounds targeting the expressed miRNA were also transfected into the cells. It is understood that other mammalian cells lines can also be used in this reporter system. T-REx™-HeLa cells were routinely cultured in DMEM, high glucose (Invitrogen Corporation, Carlsbad, Calif.), supplemented with 10% fetal bovine serum (Invitrogen Corporation). […] Cells were harvested when they reached 90% confluence, and on the day before transfection with expression or reporter plasmids (described in detail below), the T-REx™-HeLa cells were seeded onto 24-well plates at 50,000 cells/well. The following day, cells were transfected according to standard published procedures with various combinations of plasmids using 2 μg Lipofectamine™ 2000 Reagent (Invitrogen) per μg of plasmid DNA. When transfecting oligomeric compounds, 1-3 μg of Lipofectamine™ 2000 Reagent was used per 100 nM oligomeric compound.
Plasmids used are as follows: The pcDNA3.1©/NT-GFP (Invitrogen) plasmid, containing a CMV promoter controlling expression of a GFP reporter sequence at the N-terminus of the transcription start site was used as a control plasmid. The pcDNA3.1©/NT-GFP-mir-143 sensor plasmid contains (in addition to the elements above) three 22-nucleotide sites encoding the mir-143 miRNA binding site, downstream of the GFP coding sequence and upstream of the polyadenylation signal. The pCR3-pri-mir-143 plasmid (“pri-mir-143”) is a CMV promoter-driven constitutive expression plasmid which expresses the 110-nucleotide mir-143 pri-miRNA sequence (SEQ ID NO: 38), to act as a mir-143 pri-miRNA mimic. The pCR3-pri-mir control (“pri-mir-control”) is a CMV promotor-driven constitutive expression plasmid which is designed to express a similar 110-nucleotide pri-miRNA sequence ([…] CAGC; SEQ ID NO: 862) wherein the mature mir-143 sequence has been replaced with an unrelated sequence and the predicted complementary strand opposite it within the pri-miRNA structure is replaced with a nearly complementary sequence in order to preserve the stem loop as well as the bulge structure of the natural mir-143 pri-miRNA. Additionally, in order to test the effect of an oligomeric compound targeting a miRNA, the T-REx™-HeLa cells were also transfected with the uniform 2′-MOE phosphorothioate (PS) antisense oligomeric compound ISIS Number 327901 (SEQ ID NO: 319), targeted to mir-143 previously described.
Twenty-four hours post-transfection, cells were trypsinized and GFP fluorescence was analyzed by flow cytometry.

IL-6 mRNA = IL-6 mRNA in LPS-activated primary murine macrophages; assay type: cell-based, mouse; conditions: average of 3 treatments
Method in brief: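 Thioglycollate-elicited peritoneal macrophages from female C57Bl/6 mice, transfected with miRNA-targeting oligomeric compounds via FuGENE 6 (1 μL per 100 nM compound) for ~24–28 h at 37 °C, optionally primed 4 h with 100 ng/mL IFN-gamma, then stimulated 24 h with 100 ng/mL LPS. IL-6 mRNA quantified by real-time PCR.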

T47D cells = assay: Caspase-3 activity assay (apoptosis) in T47D cells; conditions: T47D cells, 48 hours

TGAGCTACAGTGCTTCATCTCA [ISIS 327901] (chemistry not given here) [uniform 2′-MOE PS; targets mir-143]
recovery of GFP fluorescence ([1]; with 20 nM mir-143 dsRNA, 4-, 20- or 100 nM): blocked the inhibitory effect of the mir-143 dsRNA oligomeric compound

327921 (antisense e[5mC]*eT*eT*e[5mC]*e[5mC]*eA*eG*eT*e[5mC]*eG*eG*eG*eG*eA*eT*eG*eT*eT*eT*eA*e[5mC]*eA) [compound 327921]
IL-6 mRNA expression, % UTC (IL-6 mRNA; 75 nM, +IFN): 122 % UTC
IL-6 mRNA expression, % UTC (IL-6 mRNA; 75 nM, −IFN): 223 % UTC
IL-6 mRNA expression, % UTC (IL-6 mRNA; 150 nM, +IFN): 144 % UTC
IL-6 mRNA expression, % UTC (IL-6 mRNA; 150 nM, −IFN): 294 % UTC
IL-6 mRNA expression, % UTC (IL-6 mRNA; 300 nM, +IFN): 287 % UTC
IL-6 mRNA expression, % UTC (IL-6 mRNA; 300 nM, −IFN): 522 % UTC
IL-6 mRNA expression, % UTC (IL-6 mRNA; 600 nM, +IFN): 313 % UTC
IL-6 mRNA expression, % UTC (IL-6 mRNA; 600 nM, −IFN): 632 % UTC

327941 (antisense eA*eA*e[5mC]*e[5mC]*e[5mC]*eA*e[5mC]*e[5mC]*eG*eA*e[5mC]*eA*eG*e[5mC]*eA*eA*eT*eG*eA*eA*eT*eG*eT*eT) [compound 327941]
IL-6 mRNA expression, % UTC (IL-6 mRNA; 75 nM, +IFN): 181 % UTC
IL-6 mRNA expression, % UTC (IL-6 mRNA; 75 nM, −IFN): 293 % UTC
IL-6 mRNA expression, % UTC (IL-6 mRNA; 150 nM, +IFN): 197 % UTC
IL-6 mRNA expression, % UTC (IL-6 mRNA; 150 nM, −IFN): 325 % UTC
IL-6 mRNA expression, % UTC (IL-6 mRNA; 300 nM, +IFN): 197 % UTC
IL-6 mRNA expression, % UTC (IL-6 mRNA; 300 nM, −IFN): 271 % UTC
IL-6 mRNA expression, % UTC (IL-6 mRNA; 600 nM, +IFN): 301 % UTC
IL-6 mRNA expression, % UTC (IL-6 mRNA; 600 nM, −IFN): 501 % UTC

328382 (e[5mC]*eA*eG*eA*e[5mC]*dT*d[5mC]*d[5mC]*d[5mC]*dA*dA*d[5mC]*dT*dG*dA*e[5mC]*e[5mC]*eA*eG*eA) [compound 328382]
Fold Increase over UTC (caspase-3 activity, apoptosis) (T47D cells; 200 nM oligomeric compound, experiment of Table 10): 0.9 fold

327901 (antisense eT*eG*eA*eG*e[5mC]*eT*eA*e[5mC]*eA*eG*eT*eG*e[5mC]*eT*eT*e[5mC]*eA*eT*e[5mC]*eT*e[5mC]*eA) [compound 327901]
Mean fluorescence ([1]; oligo with GFP mir-143 sensor only): 4.2 arbitrary units
Mean fluorescence ([1]; oligo with pri-mir-143, no GFP plasmid): 3.7 arbitrary units
Mean fluorescence ([1]; oligo with pri-mir-143 and GFP mir-143 sensor): 4.1 arbitrary units

328691 (e[5mC]*e[5mC]*e[5mC]*e[5mC]*eA*dT*d[5mC]*dT*dT*dA*dG*d[5mC]*dA*dT*d[5mC]*eT*eA*eA*eG*eG) [compound 328691]
Fold Increase over UTC (caspase activity) (T47D cells; 200 nM, relative to untreated control): 0.9
